Results on six compounds are retold here after patent publication US10100022B2, “Sphingosine kinase inhibitors” (University of Virginia Patent Foundation, priority 2014, dated 2018).

Data set [1] deals with T1, human sphingosine kinase type 2 (hSPHK2) (Homo sapiens, UniProt Q9NRA0).
T1 construct: purchased; host or cells: Sf9 insect cells (baculovirus)
T1 sequence (Q9NRA0 1-654): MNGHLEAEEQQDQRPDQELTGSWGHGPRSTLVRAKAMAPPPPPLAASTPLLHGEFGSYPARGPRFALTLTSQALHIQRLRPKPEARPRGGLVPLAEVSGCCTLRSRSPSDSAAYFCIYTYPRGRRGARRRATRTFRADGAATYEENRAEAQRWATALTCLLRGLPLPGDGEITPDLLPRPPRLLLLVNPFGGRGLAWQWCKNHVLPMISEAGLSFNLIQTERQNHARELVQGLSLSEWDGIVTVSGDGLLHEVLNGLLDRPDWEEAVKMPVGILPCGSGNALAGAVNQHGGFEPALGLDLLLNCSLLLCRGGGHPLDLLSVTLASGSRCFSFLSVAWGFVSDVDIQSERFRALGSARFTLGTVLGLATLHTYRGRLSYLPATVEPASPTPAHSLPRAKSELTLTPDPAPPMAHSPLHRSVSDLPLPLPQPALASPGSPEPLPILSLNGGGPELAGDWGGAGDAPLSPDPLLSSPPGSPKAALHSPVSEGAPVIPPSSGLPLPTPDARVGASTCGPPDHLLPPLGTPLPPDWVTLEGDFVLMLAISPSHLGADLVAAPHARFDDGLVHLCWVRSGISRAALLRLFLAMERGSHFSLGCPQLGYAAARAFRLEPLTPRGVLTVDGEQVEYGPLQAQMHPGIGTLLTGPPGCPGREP
The data set is described as follows: Sphingosine kinase assay, recombinant human SPHK2 ([32P]S1P product, scintillation counting). In kind it is biochemical. The following applies: read-out: activity hSPHK2 (range estimate of KI). The gist of the method:
(§1)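 SPHK1 from cleared lysates of baculovirus-infected Sf9 cells, unpurified; SPHK2 partially purified from Sf9 lysates. Standard sphingosine kinase protocol; [32P]S1P product captured on cation exchange paper and counted by scintillation.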

Data set [2] concerns the target T2, human sphingosine kinase type 1 (hSPHK1) (Homo sapiens, UniProt Q9NYA1).
T2 construct: made in house; host or cells: Sf9 insect cells (baculovirus)
The data set is described as follows: Sphingosine kinase assay, recombinant human SPHK1 ([32P]S1P product, scintillation counting). In kind it is biochemical. Particulars: read-out: activity hSPHK1 (range estimate of KI). The gist of the method:
as §1

For data set [3] the following is noted: patients, 1-yr trial; cited from earlier work.

pKi: −log10 of the molar value. Counter-ions that a name gives are not always drawn. Where only a bound is given, the exact number is not on record here.

T2 sequence (Q9NYA1 whole entry): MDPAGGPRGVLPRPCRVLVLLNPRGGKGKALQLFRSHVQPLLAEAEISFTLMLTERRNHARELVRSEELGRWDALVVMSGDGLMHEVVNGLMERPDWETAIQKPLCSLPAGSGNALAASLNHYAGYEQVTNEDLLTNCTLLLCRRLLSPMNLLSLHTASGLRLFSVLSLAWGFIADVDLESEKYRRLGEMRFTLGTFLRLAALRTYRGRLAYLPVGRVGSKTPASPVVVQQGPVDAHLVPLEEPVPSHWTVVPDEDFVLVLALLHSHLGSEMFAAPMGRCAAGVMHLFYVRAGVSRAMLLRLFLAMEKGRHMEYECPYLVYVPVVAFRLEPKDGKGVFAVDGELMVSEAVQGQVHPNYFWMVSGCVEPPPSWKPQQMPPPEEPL

Usually pKi stands for the negative decadic logarithm of the Ki, by convention in mol/L. In the case of `N=C(N)N1CCC[C@H]1c1nc(-c2ccc(OC/C=C\c3ccc(C(F)(F)F)cc3)c(C(F)(F)F)c2)no1` [Compound 92A, (S,Z)-amino(2-(3-(3-(trifluoromethyl)-4-((3-(4-(trifluoromethyl)phenyl)allyl)oxy)phenyl)-1,2,4-oxadiazol-5-yl)pyrrolidin-1-yl)methaniminium 2,2,2-trifluoroacetate], the pKi is more than 6.00 in data set [1] and less than 5.00 in data set [2]. On to `CC(C)=CCC/C(C)=C/COc1ccc(-c2noc([C@@H]3CCCN3C(=N)N)n2)cc1C(F)(F)F` [Compound 93A, (S,E)-(2-(3-(4-((3,7-dimethylocta-2,6-dien-1-yl)oxy)-3-(trifluoromethyl)phenyl)-1,2,4-oxadiazol-5-yl)pyrrolidin-1-yl)(13-iodanylidene)methanamine hydrochloride], for which the pKi in data set [1] and in data set [2] was less than 5.00 each time. On to `CCCOc1ccc(CCc2ccc(-c3noc([C@@H]4CCCN4C(=N)N)n3)cc2C(F)(F)F)cc1` [Compound 94A, (S)-2-(3-(4-(4-propoxyphenethyl)-3-(trifluoromethyl)phenyl)-1,2,4-oxadiazol-5-yl)pyrrolidine-1-carboximidamide hydrochloride], for which the pKi was more than 6.00 in data set [1] and less than 5.00 in data set [2]. Taken in the same sequence, the figures for `N=C(N)N1CC[C@H](O)[C@H]1c1nc(-c2ccc(OCCCC3CCCCC3)c(C(F)(F)F)c2)no1` [Compound 95A, amino((2S,3S)-2-(3-(4-(3-cyclohexylpropoxy)-3-(trifluoromethyl)phenyl)-1,2,4-oxadiazol-5-yl)-3-hydroxypyrrolidin-1-yl)methaniminium chloride] were more than 6.00 and 5.00 to 6.00. Consider `N=C(N)N1CC[C@H](O)[C@H]1c1nc(-c2ccc(OCC3CCCCC3)c(C(F)(F)F)c2)no1` [Compound 96A, amino((2S,3S)-2-(3-(4-(cyclohexylmethoxy)-3-(trifluoromethyl)phenyl)-1,2,4-oxadiazol-5-yl)-3-hydroxypyrrolidin-1-yl)methaniminium chloride], for which the pKi in data set [1] and in data set [2] was more than 6.00 each time. As for `CCCCCCCCc1ccc(CCC(N)(CO)CO)cc1` [fingolimod, 2-amino-2-[2-(4-octylphenyl)ethyl] propane 1,3-diol], the modest hypertension in data set [3] was 2-3 mmHg.
